Consider 5 compounds from patent US20250161414A1, “METHOD FOR IMPROVING AUDITORY PERCEPTION USING A VIPR1 INHIBITOR” (ST. JUDE CHILDREN'S RESEARCH HOSPITAL, INC., priority 2022, published 2025).

For assay [1], the system named is hM4Di-expressing cortical FS interneurons. Put plainly: Current-clamp recording from hM4Di-expressing (mCitrine+) cells in acute cortical slices. The format is cell-based, mouse. Conditions: bath application. The procedure:
Single-Cell Electrophysiology: Auditory Thalamocortical Brain Slices. Acute primary thalamocortical (TC) slices (400-μm thick) containing the left ACx and the left ventral part of the medial geniculate nuclei (MGv) of the thalamus were prepared as previously described (Chun et al. (2014) Science 344:1178-1182; Cruikshank et al. (2002) J. Neurophysiol. 87:361-384). Briefly, mouse brains were removed and placed in cold (4° C.) dissecting medium containing 125 mM choline-Cl, 2.5 mM KCl, 0.4 mM CaCl2, 6 mM MgCl2, 1.25 mM NaH2PO4, 26 mM NaHCO3, and 20 mM glucose (300-310 mosm), equilibrated with 95% O2/5% CO2. […] If recorded in current-clamp mode, pyramidal neurons were additionally verified as regularly spiking. […]
Single-Cell Electrophysiology: Whole-Cell Recording. Whole-cell recordings were made with patch pipettes (3-5 MOhm) using a Multiclamp 700B amplifier, digitized (10 kHz) with a Digidata 1440, and recorded using pCLAMP 10 software (all Molecular Devices, San Jose, CA). […] In voltage-clamp recordings, series resistance, input resistance, and holding current were monitored for stability. […] Input resistance and membrane resting voltage were monitored during recordings. […] Drugs were added to ACSF or locally applied via continuous pressure ejection from a large-diameter pipette placed in the slice near the recorded cell. […]

A short description of assay [2]: Frequency discrimination (auditory) acuity test, pre-pulse inhibition of acoustic startle response (FDT). The format is in vivo, mouse. Conditions: Gad2Cre, i.p., compared to vehicle. The procedure:
(§1) Mouse Behavioral Tests: Frequency Discrimination (Auditory) Acuity Test. Pitch-discrimination acuity was assessed using pre-pulse inhibition (PPI) of the acoustic startle response via a hardware-computer interface (Kinder Scientific, Chula Vista, CA), according to established methods (Aizenberg et al. (2015) PLOS Biol. 13:e1002308; Blundon et al. (2017) Science 356:1352-1356). In brief, a background pure tone (16.4 kHz) was played at a sound pressure level (SPL) of 70 dB throughout the session, unless otherwise noted. Each session was split into four blocks. Block 1 included a 5-minute acclimation period in which the background tone was played. Block 2 included nine startle trials in which a 120-dB SPL, 20-ms white noise (WN) burst was played. Block 3 included prepulse trials and 10 startle-only trials in a pseudo-random order. Each pre-pulse trial included a 70-dB SPL 80-ms pre-pulse (pure-tone frequency was 0%, 1%, 2%, 4%, 8%, 16%, or 32% lower than that of the background tone), followed by a 120-dB SPL, 20-ms WN startle pulse, and then returned to the background tone after the startle. Every trial in Block 3 was presented 10 times. […] PPI percentage was calculated from Block 3 data as follows: [1−(pre-pulse trial/average startle only trial)]*100. […] FDT values were then analyzed using a t-test, a one-way ANOVA, or a paired t-test, as appropriate. […]

The nature of assay [3]: Acoustic startle response (ASR). The format is in vivo, mouse. Conditions: C21 i.p., either genotype (Gad2Cre; WT or Gad2Cre; CD+/-). The procedure:
as §1

In a further assay the test system is ACx excitatory neurons. Type of assay: cell-based, mouse.
Assay [4] relates to FS interneurons in the ACx. Nature of the assay: Whole-cell current-clamp recording of FS interneuron excitability (rheobase, current ramp) in auditory thalamocortical slices. Type of assay: cell-based, mouse. Conditions: for PG 97-269 rheobase shift (difference between rheobase before and after application) / PG 97-269 rheobase shift: FS interneurons.
The next assay deals with ACx interneurons. Put plainly: Whole-cell voltage-clamp recording of inward voltage-gated current threshold (voltage ramp) in ACx interneurons. The format is cell-based, mouse. Conditions: Gtf2ird1+/- and Gtf2ird1-/- cortical interneurons compared to WT interneurons.

Read-outs that look alike come from different tables or passages of the source. No end group written: not given here.

Turning to `c1ccc2c(c1)N=C(N1CCNCC1)c1ccccc1N2` [C21], in assay [1], the “number of action potentials elicited by depolarizing current injections” value is on record as “decreased”. The “FDT (frequency-discrimination threshold)” value is “significantly increased” in assay [2] (CD+/- mice expressing hM4Di in ACx interneurons) and “not different” in assay [2] (WT mice expressing hM4Di in ACx interneurons). Moreover, the ASR result in assay [3] was “not affected”.
Consider `NC1=N[C@H](O)[C@H]2[C@H]3O[C@]4(O)O[C@@H]([C@@H](O)[C@@]2(N1)[C@@H]4O)[C@]3(O)CO` [tetrodotoxin], for which, in the assay on ACx excitatory neurons, the “difference in sEPSC frequencies between WT and CD+/- ACx excitatory neurons after application” value is reported as “abolished”.
Turning to “[Acetyl-His^1, D-Phe^2, Lys^15, Arg^16, Leu^17] VIP (1-7)/GRF (8-27) hybrid with C-terminal amidation (HFDAVFTNSYRKVLKRLSARKLLQDIL; HELM PEPTIDE1{[ac].H.[dF].D.A.V.F.T.N.S.Y.R.K.V.L.K.R.L.S.A.R.K.L.L.Q.D.I.L.[am]}$$$$V2.0; SMILES CC[C@H](C)[C@H](NC(=O)[C@H](CC(=O)O)NC(=O)[C@H](CCC(N)=O)NC(=O)[C@H](CC(C)C)NC(=O)[C@H](CC(C)C)NC(=O)[C@H](CCCCN)NC(=O)[C@H](CCCNC(=N)N)NC(=O)[C@H](C)NC(=O)[C@H](CO)NC(=O)[C@H](CC(C)C)NC(=O)[C@H](CCCNC(=N)N)NC(=O)[C@H](CCCCN)NC(=O)[C@H](CC(C)C)NC(=O)[C@@H](NC(=O)[C@H](CCCCN)NC(=O)[C@H](CCCNC(=N)N)NC(=O)[C@H](Cc1ccc(O)cc1)NC(=O)[C@H](CO)NC(=O)[C@H](CC(N)=O)NC(=O)[C@@H](NC(=O)[C@H](Cc1ccccc1)NC(=O)[C@@H](NC(=O)[C@H](C)NC(=O)[C@H](CC(=O)O)NC(=O)[C@@H](Cc1ccccc1)NC(=O)[C@H](Cc1c[nH]cn1)NC(C)=O)C(C)C)[C@@H](C)O)C(C)C)C(=O)N[C@@H](CC(C)C)C(N)=O) [PG 97-269, VIPR1-specific antagonist]”, the “effect on excitability of FS interneurons” value in assay [4] (ACx of Gtf2ird1+/- and Gtf2ird1-/- mice compared to WT mice) is “either a diminished or no effect”; in assay [4] (CD+/- cortex, interneurons already hyperexcitable), “no additional effect”. Also, the “PG 97-269 rheobase shift (difference between rheobase before and after application)” value in assay [4] (CD+/- mice) is “not significantly different from 0”; in assay [4] (WT mice), “significantly less than 0”. Also, the “PG 97-269 rheobase shift” value in assay [4] (Gtf2ird1+/- mice) is recorded as “did differ from 0”; in assay [4] (Gtf2ird1-/- mice) it was “did not significantly differ from 0”. In addition, in the assay on ACx interneurons, the “PG 97-269 threshold shift” value is recorded as “significantly reduced”.
As to “[Ala^11,22,28]-VIP (HSDAVFTDNYARLRKQMAVKKALNSILA; ends and bridges not checked; UniProt P01282 125-152, looked up, variant T11A Y22A N28A) [VIPR1-specific agonist]”, the “effect of VIPR1-specific agonist on interneurons” value in assay [4] (WT or CD+/- interneurons, brain slices) is on record as “no significant effect”.
As for picrotoxin, the “difference in sEPSC frequencies between WT and CD+/- ACx excitatory neurons after application” value in the assay on ACx excitatory neurons (L4 ACx excitatory neurons) was “abolished”.
